Test results taken from paper PMC9545474, “Anticancer Water‐Soluble Organoruthenium Complexes: Synthesis and Preclinical Evaluation” (Chembiochem, 2022).
Structures can show the parent of a compound that is named as a salt. Where two headings read alike, the source gives them in different places.

What was measured:
[1] = test system: PNT2 non-cancerous human prostate cells; test: 24-hour MTT chemosensitivity assay with 72-hour recovery, PNT2; format: cell-based
Protocol: (§1) Chemosensitivity studies were undertaken using a 24‐hour MTT assay, with a 72‐hour recovery period. The IC50 values were determined against ovarian A2780 (cisplatin‐sensitive) and A2780cisR (cisplatin‐resistant) cancer cell lines, non‐small‐cell lung H460 cancer cell line, and normal prostate PNT2 cell line, exposed to each of compounds 4–8, cisplatin or the phosphine ligands (Table 1 and S4, Figures S29–S31). […] This is unusual but can be related to solubility issues not visible for the naked eye and thus hindering its activity in cells. […] When tested on their own, the phosphine ligands are not active below 100 μM for all four cell lines. […] This therefore prevents comparison with the well‐known RAPTA family, and more especially with RAPTA−C which bears a PTA ligand and a p‐cym ligand, making this complex relatively similar in terms of geometry with complex 4.[21] […] This confirms the interest of the sulfur coordinating atom in terms of cytotoxicity for organoruthenium complexes.[23]
(§2) Chemosensitivity assay: In vitro chemosensitivity tests were performed against A2780, A2780cisR, PNT2 and H460 cells. Cells were routinely maintained as monolayer cultures in RPMI 1640 medium supplemented with 10 % foetal calf serum, penicillin (100 I.U./mL) and streptomycin (100 μg/mL), sodium pyruvate (1 mM) and L‐glutamine (2 mM). For chemosensitivity studies, cells were seeded in 96‐well plates at a concentration of 7.5×10^3 cells per well and the plates were incubated for 24 h at 37 °C and a 5 % CO2 humidified atmosphere prior to drug exposure.
(§3) Complexes were dissolved in either DMSO (complexes 4, 5, and 8) or PBS (complexes 6 and 7) to provide stock solutions which were further diluted with media to provide a range of final concentrations. Drug‐media solutions were added to cells (the final concentration of DMSO was less than 1 % (v/v) in all cases) and incubated for 24 h at 37 °C and a 5 % CO2 humidified atmosphere. The drug‐media solution was removed from the wells and the cells were washed with PBS (100 μL, twice) and 200 μL of complete fresh media were added to each well. The plates were further incubated for 72 h at 37 °C and a 5 % CO2 humidified atmosphere to allow for a period of recovery. 3‐(4,5‐dimethylthiazol‐2‐yl)‐2,5‐diphenyltetrazolium bromide (MTT) (40 μL, 2.5 mg/mL) was added to each well and plates were incubated for 2 h. All solutions were then removed and 100 μL of DMSO was added to each well in order to dissolve the purple formazan crystals. A Thermo Scientific Multiskan EX microplate photometer was used to measure the absorbance in each well at 570 nm. Cell survival was determined as the absorbance of treated cells divided by the absorbance of controls and expressed as a percentage. The IC50 values were determined from plots of % survival against drug concentration. Each experiment was repeated in triplicates of triplicates and a mean value was obtained and stated as IC50 (μM) ± SD. Untreated cells were used as a negative control, and cells treated with cisplatin were used as a positive control.

[2] = test system: A2780cisR cisplatin-resistant ovarian cancer cells; test: 24-hour MTT chemosensitivity assay with 72-hour recovery, A2780cisR; format: cell-based, human; conditions: for IC50: read-out: IC50 values ±SD, A2780cisR; for Selectivity index (SI), A2780cisR: mean IC50 PNT2 / mean IC50 A2780cisR
Protocol: as §1, §2, §3

[3] = test system: H460 non-small-cell lung cancer cells; test: 24-hour MTT chemosensitivity assay with 72-hour recovery, H460; format: cell-based
Protocol: as §1, §2, §3

[4] = test system: A2780 ovarian cancer cells; test: 24-hour MTT chemosensitivity assay with 72-hour recovery, A2780; format: cell-based, human; conditions: for Selectivity index (SI), A2780: mean IC50 PNT2 / mean IC50 A2780
Protocol: as §1, §2, §3

[5] = test system: A2780 cells; test: FITC annexin-V / PI apoptosis assay by flow cytometry; format: cell-based, human; conditions: A2780, 24 h, complexes 2×IC50, doxorubicin 0.5 µM; for viability at 0.5 µM: Homo sapiens
From the text: Annexin V‐FITC and propidium iodide (PI) have been used to distinguish between viable cells (Q1‐LL), early apoptotic cells (Q1‐LR), late apoptotic cells (Q1‐UR), and necrotic cells (Q1‐UL). […] Both complexes 6 and 8 induce apoptosis of A2780 cells and treatment with the complexes results in 99.6 % and 95.4 % of the cells in late apoptosis, respectively.
Figure 9 Flow cytometry analysis of A2780 cells exposed to complexes 6 or 8 at twice the IC50 concentration compared to a negative control. FITC reads annexin fluorescence and PE reads propidium iodide. Abbreviations: Q1‐UL=non‐viable cells; Q1‐UR=late‐stage apoptotic cells; Q1‐LR=early‐stage apoptotic cells and Q1‐LL=healthy cells.
FITC annexin‐V apoptosis assay: Flow cytometry analysis of apoptotic populations was carried out using the FITC Annexin V Apoptosis Detection Kit with PI (BioLegend®) according to manufacturer's instructions. Briefly, A2780 cells were seeded in 6‐well plates at a concentration of 1.0×10^6 cells per well and the plates were incubated for 24 h at 37 °C and a 5 % CO2 humidified atmosphere. […] Cells were then harvested using trypsin (without EDTA) and stained with PI/Annexin V‐FITC. After staining in the dark for 15 min at room temperature, cell pellets were analysed in a BD Accuri C6 Plus System flow cytometer and data was analysed using the BD Accuri C6 Plus software. These experiments were carried out in duplicate of triplicates in independent experiments; although only selected dot plots are shown, full numerical data and statistical analysis can be found in the Supporting Information.

[6] = 24 h exposure, 72 h recovery, MTT, read-out: IC50 values ±SD, PNT2
[7] = 24 h exposure, 72 h recovery, MTT
[8] = 24 h exposure, 72 h recovery, MTT, read-out: IC50 values ±SD, H460
[9] = 24 h exposure, 72 h recovery, MTT, read-out: IC50 values ±SD, A2780
[10] = Combined results, Average of two experiments
[11] = Homo sapiens, PNT2, read-out: IC50 values ±SD, PNT2
[12] = Homo sapiens, NCI-H460, read-out: IC50 values ±SD, H460
[13] = Homo sapiens, A2780, read-out: IC50 values ±SD, A2780

(η^6‐p‐cymene)(DAPTA)Ru(Mnt) [Complex 5]
IC50 [1, 6]: 33 ± 1.4 µM
IC50 [2, 7]: 72 ± 6 µM
Selectivity factor (cross-resistance, resistance factor RF) ([2]; IC50 A2780cisR / IC50 A2780): 5.1
Selectivity index (SI), A2780cisR [2]: 0.49
IC50 [3, 8]: ≥ 100 µM
IC50 [4, 9]: 14 ± 2 µM
Selectivity index (SI), A2780 [4]: 2.36

COc1cccc2c1C(=O)c1c(O)c3c(c(O)c1C2=O)C[C@@](O)(C(=O)CO)C[C@@H]3O[C@H]1C[C@H](N)[C@H](O)[C@H](C)O1 [Doxorubicin, doxorubicin, reference compound]
Early apoptosis (Q1-LR) [5, 10]: 0.0%
Late apoptosis (Q1-UR) [5, 10]: 99.9%
Necrosis (Q1-UL) [5, 10]: 0.1%
Early apoptosis (Q1-LR) ([5]; Experiment 1, Average): 0.0%
Late apoptosis (Q1-UR) ([5]; Experiment 1, Average): 99.9%
Necrosis (Q1-UL) ([5]; Experiment 1, Average): 0.1%
Viable cells (Q1-LL) ([5]; Experiment 1, Average): 0.0%
Early apoptosis (Q1-LR) ([5]; Experiment 1, Rep 1): 0.0%
Late apoptosis (Q1-UR) ([5]; Experiment 1, Rep 1): 99.8%
Necrosis (Q1-UL) ([5]; Experiment 1, Rep 1): 0.2%
Early apoptosis (Q1-LR) ([5]; Experiment 1, Rep 2): 0.0%
Late apoptosis (Q1-UR) ([5]; Experiment 1, Rep 2): 99.9%
Necrosis (Q1-UL) ([5]; Experiment 1, Rep 2): 0.1%
Early apoptosis (Q1-LR) ([5]; Experiment 1, Rep 3): 0.0%
Late apoptosis (Q1-UR) ([5]; Experiment 1, Rep 3): 100.0%
Necrosis (Q1-UL) ([5]; Experiment 1, Rep 3): 0.0%
Early apoptosis (Q1-LR) ([5]; Experiment 2, Average): 0.0%
Late apoptosis (Q1-UR) ([5]; Experiment 2, Average): 99.9%
Necrosis (Q1-UL) ([5]; Experiment 2, Average): 0.0%
Viable cells (Q1-LL) ([5]; Experiment 2, Average): 0.0%
Early apoptosis (Q1-LR) ([5]; Experiment 2, Rep 1): 0.0%
Late apoptosis (Q1-UR) ([5]; Experiment 2, Rep 1): 99.9%
Necrosis (Q1-UL) ([5]; Experiment 2, Rep 1): 0.0%
Early apoptosis (Q1-LR) ([5]; Experiment 2, Rep 2): 0.0%
Late apoptosis (Q1-UR) ([5]; Experiment 2, Rep 2): 99.9%
Necrosis (Q1-UL) ([5]; Experiment 2, Rep 2): 0.1%
Early apoptosis (Q1-LR) ([5]; Experiment 2, Rep 3): 0.0%
Late apoptosis (Q1-UR) ([5]; Experiment 2, Rep 3): 100.0%
Necrosis (Q1-UL) ([5]; Experiment 2, Rep 3): 0.0%
viability at 0.5 µM ([5]; Combined results, Average of two experiments, read-out: Viable cells (Q1-LL)): 0%
viability at 0.5 µM ([5]; Experiment 1, Average, read-out: Viable cells (Q1-LL)): 0%
viability at 0.5 µM ([5]; Experiment 1, Rep 1, read-out: Viable cells (Q1-LL)): 0%
viability at 0.5 µM ([5]; Experiment 1, Rep 2, read-out: Viable cells (Q1-LL)): 0%
viability at 0.5 µM ([5]; Experiment 1, Rep 3, read-out: Viable cells (Q1-LL)): 0%
viability at 0.5 µM ([5]; Experiment 2, Average, read-out: Viable cells (Q1-LL)): 0%
viability at 0.5 µM ([5]; Experiment 2, Rep 1, read-out: Viable cells (Q1-LL)): 0%
viability at 0.5 µM ([5]; Experiment 2, Rep 2, read-out: Viable cells (Q1-LL)): 0.1%
viability at 0.5 µM ([5]; Experiment 2, Rep 3, read-out: Viable cells (Q1-LL)): 0%

Cc1ccc(C(C)C)cc1.N#CC1=C(C#N)[S][Ru-]([P+](c2ccc(C(F)(F)F)cc2)(c2cccc(S(=O)(=O)[O-])c2)c2cccc(S(=O)(=O)[O-])c2)[S]1.[Na+].[Na+] [Complex 7, (η^6‐p‐cymene)(p‐DANPHOS)Ru(Mnt)]
IC50 [1, 6]: 2.2 ± 0.1 µM
IC50 [2, 7]: 2.3 ± 0.7 µM
Selectivity index (SI), A2780cisR [2]: 0.96
IC50 [3, 8]: 2.3 ± 0.3 µM
Selectivity index (SI), H460 ([3]; mean IC50 PNT2 / mean IC50 H460): 0.96
IC50 [4, 9]: 2.8 ± 0.8 µM
Selectivity index (SI), A2780 [4]: 0.79

O=S(=O)(O)c1cccc(P(c2cccc(S(=O)(=O)O)c2)c2cccc(S(=O)(=O)O)c2)c1 [TPPTS, triphenylphosphine‐3,3′,3′′‐trisulfonic acid trisodium salt]
IC50 [1, 6]: ≥ 100 µM
IC50 [2, 7]: ≥ 100 µM
IC50 [3, 8]: ≥ 100 µM
IC50 [4, 9]: ≥ 100 µM

O=S(=O)(O)c1cccc(P(c2ccc(C(F)(F)F)cc2)c2cccc(S(=O)(=O)O)c2)c1 [p-DANPHOS, bis(3‐sulfonatophenyl)(4‐trifluoromethylphenyl)phosphine disodium dihydrate]
IC50 [1, 11]: ≥ 100 µM
IC50 ([2]; Homo sapiens, A2780cisR): ≥ 100 µM
IC50 [3, 12]: ≥ 100 µM
IC50 [4, 13]: ≥ 100 µM

C1N2CN3CN1CP(C2)C3 [PTA, 1,3,5‐triaza‐7‐phosphaadamantane]
IC50 [1, 11]: ≥ 100 µM
IC50 ([2]; Homo sapiens, A2780cisR): ≥ 100 µM
IC50 [3, 12]: ≥ 100 µM
IC50 [4, 13]: ≥ 100 µM

CC(=O)N1CN2CN(C(C)=O)CP(C2)C1 [DAPTA, 3,7‐diacetyl‐1,3,7‐triaza‐5‐phosphabicyclo[3.3.1]nonane]
IC50 [1, 11]: ≥ 100 µM
IC50 ([2]; Homo sapiens, A2780cisR): ≥ 100 µM
IC50 [3, 12]: ≥ 100 µM
IC50 [4, 13]: ≥ 100 µM
